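Each compound was tested at five concentrations against cells in 96-well plates for 48 hours. The concentration for 50% growth inhibition is given as GI50.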 Activity calls are given as the source filed them. No stated cut-off is given here; in the data, active = GI50 up to about 1.1 µM and inactive = higher.
Key:
Test in all cases: DTP human tumour cell line panel, 48 h
[1] = tested on: NCI-H226
[2] = tested on: 786-0
[3] = tested on: OVCAR-5
[4] = tested on: SNB-19
[5] = tested on: OVCAR-4
[6] = tested on: Malme-3M
[7] = tested on: HL-60
[8] = tested on: SK-OV-3
[9] = tested on: M19-MEL
[10] = tested on: SK-MEL-5
[11] = tested on: SK-MEL-2
[12] = tested on: MDA-MB-231
[13] = tested on: DLD-1
[14] = tested on: BT-549
[15] = tested on: SF-268
[16] = tested on: LOX IMVI
[17] = tested on: MDA-N
[18] = tested on: UACC-257
[19] = tested on: HCT-15
[20] = tested on: KM12
[21] = tested on: ACHN
[22] = tested on: NCI-H460
[23] = tested on: UACC-62
[24] = tested on: CAKI-1
[25] = tested on: DMS-273
[26] = tested on: MOLT-4
[27] = tested on: EKVX
[28] = tested on: TK-10
[29] = tested on: HOP-62
[30] = tested on: IGROV-1
[31] = tested on: M14
[32] = tested on: OVCAR-8
[33] = tested on: SNB-78
[34] = tested on: HT-29
[35] = tested on: SNB-75
[36] = tested on: SF-295
[37] = tested on: UO-31
[38] = tested on: HOP-92
[39] = tested on: RPMI-8226
[40] = tested on: NCI-H522
[41] = tested on: MCF7
[42] = tested on: A498
[43] = tested on: HCT-116
[44] = tested on: HOP-18
[45] = tested on: MDA-MB-435
[46] = tested on: CCRF-CEM
[47] = tested on: NCI/ADR-RES
[48] = tested on: SF-539
[49] = tested on: NCI-H23
[50] = tested on: DU-145
[51] = tested on: K562
[52] = tested on: HCC 2998
[53] = tested on: SR
[54] = tested on: SK-MEL-28
[55] = tested on: SN12C
[56] = tested on: RXF 393
[57] = tested on: Hs-578T
[58] = tested on: U-251
[59] = tested on: OVCAR-3
[60] = tested on: T47D
[61] = tested on: KM-20L2
[62] = tested on: PC-3
[63] = tested on: DMS-114

CC(C)CCCCCCCCCCCCC(=O)NCC(=O)NC1C(O)C(O)C(Nc2[nH]cnc3ncnc2-3)OC1C(O)CO (stereo not drawn)
GI50 [1]: 0.552 nM (active)
GI50 [2]: 225 nM (active)
GI50 [3]: 1.99 nM (active)
GI50 [4]: 0.564 nM (active)
GI50 [5]: 0.492 nM (active)
GI50 [6]: 0.679 nM (active)
GI50 [7]: 0.57 nM (active)
GI50 [8]: 0.671 nM (active)
GI50 [9]: 0.211 nM (active)
GI50 [10]: 1.14 nM (active)
GI50 [11]: 5.79 nM (active)
GI50 [12]: 182 nM (active)
GI50 [13]: 20.5 nM (active)
GI50 [14]: 207 nM (active)
GI50 [15]: 3.59 nM (active)
GI50 [16]: 0.508 nM (active)
GI50 [17]: 229 nM (active)
GI50 [18]: 0.605 nM (active)
GI50 [19]: 65.3 nM
GI50 [20]: 0.575 nM (active)
GI50 [21]: 225 nM (active)
GI50 [22]: 0.541 nM (active)
GI50 [23]: 0.519 nM (active)
GI50 [24]: 0.472 nM (active)
GI50 [25]: 0.133 nM (active)
GI50 [26]: 12.1 nM (active)
GI50 [27]: 1.75 nM (active)
GI50 [28]: 179 nM (active)
GI50 [29]: 0.453 nM (active)
GI50 [30]: 0.508 nM (active)
GI50 [31]: 191 nM (active)
GI50 [32]: 0.578 nM (active)
GI50 [33]: 0.148 nM (active)
GI50 [34]: 0.555 nM (active)
GI50 [35]: 0.441 nM (active)
GI50 [36]: 0.604 nM (active)
GI50 [37]: 0.574 nM (active)
GI50 [38]: 0.49 nM (active)
GI50 [39]: 0.525 nM (active)
GI50 [40]: 0.664 nM (active)
GI50 [41]: 23.4 nM (active)
GI50 [42]: 0.248 nM (active)
GI50 [43]: 0.479 nM (active)
GI50 [44]: 0.164 nM (active)
GI50 [45]: 224 nM (active)
GI50 [46]: 56.8 nM (active)
GI50 [47]: 4.03 nM (active)
GI50 [48]: 0.849 nM (active)
GI50 [49]: 1.25 nM (active)
GI50 [50]: 190 nM (active)
GI50 [51]: 43.6 nM (active)
GI50 [52]: 0.18 nM (active)
GI50 [53]: 426 nM (active)
GI50 [54]: 31.6 nM (active)
GI50 [55]: 0.753 nM (active)
GI50 [56]: 0.877 nM (active)
GI50 [57]: 172 nM (active)
GI50 [58]: 0.461 nM (active)
GI50 [59]: 0.605 nM (active)
GI50 [60]: 320 nM (active)
GI50 [61]: 0.166 nM (active)
GI50 [62]: 183 nM (active)
GI50 [63]: 0.416 nM (active)

From ChEMBL document CHEMBL1201862, “PubChem BioAssay data set” (2004)
